Test results taken from US20240083900A1, “PYRAZOLO[1,5-A]PYRAZINE DERIVATIVES AS BTK INHIBITORS” (BIOGEN MA INC., priority 2020, published 2024).
pIC50: −log10 of the molar value. Like-named read-outs stand apart in the source and are kept apart here.

Legend:
BTK = BTK (Homo sapiens (Human), UniProt Q06187); assay: In Vitro BTK Kinase Assay: Btk-PolyGAT-LS Assay; assay type: biochemical; conditions: BTK enzyme 0.25 nM, ATP 10 μM, polyGAT 100 nM, 30 minutes incubation, TRF readout; read-out: IC50
Method in brief: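 Human BTK activity was measured with final 10 μM ATP and 100 nM polyGAT substrate in pH 7.5 Tris buffer with 10 mM MgCl2, DTT, Triton X-100 and casein.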

[1] = system: CD69 expression on CD19+ B cells in human whole blood stimulated with anti-human IgD; assay: In Vitro whole blood CD69 Assay; assay type: cell-based; conditions: human heparinized whole blood, anti-human IgD stimulation overnight, percentage of CD19+ B cells expressing CD69, flow cytometry, read-out: IC50

Sequence of BTK (Q06187 whole entry): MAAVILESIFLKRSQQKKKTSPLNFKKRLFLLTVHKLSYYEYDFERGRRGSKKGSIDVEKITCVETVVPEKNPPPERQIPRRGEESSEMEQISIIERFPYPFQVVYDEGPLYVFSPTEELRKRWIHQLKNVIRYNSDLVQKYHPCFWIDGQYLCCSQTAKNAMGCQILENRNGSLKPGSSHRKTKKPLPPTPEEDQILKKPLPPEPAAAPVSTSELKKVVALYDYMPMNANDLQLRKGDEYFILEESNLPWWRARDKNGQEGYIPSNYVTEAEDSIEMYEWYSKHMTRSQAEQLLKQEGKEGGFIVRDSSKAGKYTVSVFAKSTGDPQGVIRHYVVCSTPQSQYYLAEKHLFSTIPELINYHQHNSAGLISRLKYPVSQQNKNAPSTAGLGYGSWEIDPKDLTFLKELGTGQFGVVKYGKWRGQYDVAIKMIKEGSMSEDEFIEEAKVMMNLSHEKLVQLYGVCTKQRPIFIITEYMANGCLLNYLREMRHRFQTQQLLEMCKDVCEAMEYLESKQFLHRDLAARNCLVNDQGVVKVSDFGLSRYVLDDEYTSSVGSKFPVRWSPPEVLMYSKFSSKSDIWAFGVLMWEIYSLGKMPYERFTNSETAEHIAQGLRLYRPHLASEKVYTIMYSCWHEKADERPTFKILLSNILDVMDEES

| Structure (SMILES) | pIC50 (BTK) | pIC50 ([1]; Homo sapiens, B-cell) | pIC50 [1] |
| --- | --- | --- | --- |
| CC#CC(=O)N[C@H]1CC[C@@H](Oc2cc(-c3cnn(C)c3)cn3nccc23)C1 [Example 164, N-[(1S,3R)-3-[6-(1-methylpyrazol-4-yl)pyrazolo[1,5-a]pyridin-4-yl]oxycyclopentyl]but-2-ynamide] | 8.00 to 9.00 | 5.00 to 6.00 | – |
| C=CC(=O)N[C@H]1C[C@@](C)(Oc2nc(-c3cnn(C)c3)cn3ncc(C4CC4)c23)C1 [Example 166, N-((cis)-3-((3-cyclopropyl-6-(1-methyl-1H-pyrazol-4-yl)pyrazolo[1,5-a]pyrazin-4-yl)oxy)-3-methylcyclobutyl)acrylamide] | > 9.00 | > 6.00 | – |
| C=CC(=O)N1CC[C@@H]2[C@@H](Oc3nc(-c4cnn(C)c4)cn4nccc34)C(C)(C)[C@@H]21 [Example 169, 1-((1R,5S,6R)-7,7-dimethyl-6-((6-(1-methyl-1H-pyrazol-4-yl)pyrazolo[1,5-a]pyrazin-4-yl)oxy)-2-azabicyclo[3.2.0]heptan-2-yl)prop-2-en-1-one] | 8.00 to 9.00 | 5.00 to 6.00 | – |
| C=CC(=O)N1CC[C@@H]2[C@H]1C(C)(C)[C@H]2Oc1nc(-c2cnn(C)c2)cn2nccc12 [Example 170, 1-((1S,5R,6S)-7,7-dimethyl-6-((6-(1-methyl-1H-pyrazol-4-yl)pyrazolo[1,5-a]pyrazin-4-yl)oxy)-2-azabicyclo[3.2.0]heptan-2-yl)prop-2-en-1-one] | 6.00 to 8.00 | 5.00 to 6.00 | – |
| C=CC(=O)N1CC[C@H]2[C@@H](Oc3nc(-c4cnn(C)c4)cn4nccc34)C(C)(C)[C@H]21 [Example 171, 1-((1S,5R,6R)-7,7-dimethyl-6-((6-(1-methyl-1H-pyrazol-4-yl)pyrazolo[1,5-a]pyrazin-4-yl)oxy)-2-azabicyclo[3.2.0]heptan-2-yl)prop-2-en-1-one] | 6.00 to 8.00 | 5.00 to 6.00 | – |
| C=CC(=O)N1CC[C@@H]2[C@H](Oc3nc(-c4cnn(C)c4)cn4nccc34)C(C)(C)[C@@H]21 [Example 172, 1-((1R,5S,6S)-7,7-dimethyl-6-((6-(1-methyl-1H-pyrazol-4-yl)pyrazolo[1,5-a]pyrazin-4-yl)oxy)-2-azabicyclo[3.2.0]heptan-2-yl)prop-2-en-1-one] | > 9.00 | 5.00 to 6.00 | – |
| C=CC(=O)N(C)[C@@H]1CC[C@H](Oc2nc(-c3cnn(C)c3)cn3ncc(-c4ccccc4)c23)C1 [Example 173, N-methyl-N-((1R,3S)-3-(6-(1-methylpyrazol-4-yl)-3-phenyl-pyrazolo[1,5-a]pyrazin-4-yl)oxycyclopentyl)prop-2-enamide] | 8.00 to 9.00 | 5.00 to 6.00 | – |
| C=CC(=O)N1C[C@H]2C[C@H](Oc3nc(-c4cnn(C)c4)cn4nccc34)C[C@H]2C1 [Example 174, 1-((3aR,5s,6aS)-5-((6-(1-methyl-1H-pyrazol-4-yl)pyrazolo[1,5-a]pyrazin-4-yl)oxy)hexahydrocyclopenta[c]pyrrol-2(1H)-yl)prop-2-en-1-one] | > 9.00 | > 6.00 | – |
| CC#CC(=O)N(C)[C@H]1CCC[C@@H](Oc2nc(-c3cnn(C)c3)cn3nccc23)C1 [Example 177, N-methyl-N-((1S,3R)-3-((6-(1-methyl-1H-pyrazol-4-yl)pyrazolo[1,5-a]pyrazin-4-yl)oxy)cyclohexyl)but-2-ynamide] | > 9.00 | > 6.00 | – |
| CC#CC(=O)N(C)[C@@H]1CCC[C@H](Oc2nc(-c3cnn(C)c3)cn3nccc23)C1 [Example 178, N-methyl-N-((1R,3S)-3-((6-(1-methyl-1H-pyrazol-4-yl)pyrazolo[1,5-a]pyrazin-4-yl)oxy)cyclohexyl)but-2-ynamide] | 6.00 to 8.00 | 5.00 to 6.00 | – |
| CC#CC(=O)N[C@H]1CCC[C@@H](Oc2nc(-c3cnn(C)c3)cn3nccc23)C1 [Example 179, N-((1S,3R)-3-((6-(1-methyl-1H-pyrazol-4-yl)pyrazolo[1,5-a]pyrazin-4-yl)oxy)cyclohexyl)but-2-ynamide] | > 9.00 | > 6.00 | – |
| C=CC(=O)N(C)CCOc1nc(-c2cnn(C)c2)cn2nccc12 [Example 183, N-methyl-N-(3-((6-(1-methyl-1H-pyrazol-4-yl)pyrazolo[1,5-a]pyrazin-4-yl)oxy)ethyl)acrylamide] | 8.00 to 9.00 | 5.00 to 6.00 | – |
| C=CC(=O)N[C@H]1C[C@@](C)(Oc2nc(-c3cnc(C)s3)cn3nccc23)C1 [Example 186, N-((1s,3s)-3-methyl-3-((6-(2-methylthiazol-5-yl)pyrazolo[1,5-a]pyrazin-4-yl)oxy)cyclobutyl)acrylamide] | > 9.00 | > 6.00 | – |
| C=CC(=O)N1CCC[C@](F)(COc2nc(-c3cnn(C)c3)cn3nccc23)C1 [Example 187, (R)-1-(3-fluoro-3-(((6-(1-methyl-1H-pyrazol-4-yl)pyrazolo[1,5-a]pyrazin-4-yl)oxy)methyl)piperidin-1-yl)prop-2-en-1-one] | > 9.00 | > 6.00 | – |
| C=CC(=O)N1CCC[C@@](F)(COc2nc(-c3cnn(C)c3)cn3nccc23)C1 [Example 188, (S)-1-(3-fluoro-3-(((6-(1-methyl-1H-pyrazol-4-yl)pyrazolo[1,5-a]pyrazin-4-yl)oxy)methyl)piperidin-1-yl)prop-2-en-1-one] | 8.00 to 9.00 | > 6.00 | – |
| C=CC(=O)N1CCC(C)(COc2nc(-c3cnn(C)c3)cn3nccc23)CC1 [Example 189, 1-(4-methyl-4-(((6-(1-methyl-1H-pyrazol-4-yl)pyrazolo[1,5-a]pyrazin-4-yl)oxy)methyl)piperidin-1-yl)prop-2-en-1-one] | 8.00 to 9.00 | 5.00 to 6.00 | – |
| C[C@@H]1O[C@H]1C(=O)N1CC[C@@H]2[C@H]1C[C@@]2(C)Oc1nc(-c2cnn(C)c2)cn2nccc12 [Example 192, ((1R,5R,6R)-6-methyl-6-((6-(1-methyl-1H-pyrazol-4-yl)pyrazolo[1,5-a]pyrazin-4-yl)oxy)-2-azabicyclo[3.2.0]heptan-2-yl)((2R,3S)-3-methyloxiran-2-yl)methanone] | 6.00 to 8.00 | 5.00 to 6.00 | – |
| C=CC(=O)N1C[C@H]2C[C@@H](Oc3nc(-c4cnn(C)c4)cn4ncc(C)c34)[C@H]2C1 [Example 197, 1-((1S,5R,6R)-6-((3-methyl-6-(1-methyl-1H-pyrazol-4-yl)pyrazolo[1,5-a]pyrazin-4-yl)oxy)-3-azabicyclo[3.2.0]heptan-3-yl)prop-2-en-1-one] | > 9.00 | > 6.00 | – |
| C=CC(=O)N(C)[C@H]1C[C@@](C)(Oc2nc(-c3cnn(C)c3)cn3ncc(F)c23)C1 [Example 211, N-((1s,3s)-3-((3-fluoro-6-(1-methyl-1H-pyrazol-4-yl)pyrazolo[1,5-a]pyrazin-4-yl)oxy)-3-methylcyclobutyl)-N-methylacrylamide] | > 9.00 | > 6.00 | – |
| C=CC(=O)N1CC[C@]2(C1)C[C@](C)(Oc1nc(-c3cnn(C)c3)cn3nccc13)C2 [Example 212, rac-1-((2s,4r)-2-methyl-2-((6-(1-methyl-1H-pyrazol-4-yl)pyrazolo[1,5-a]pyrazin-4-yl)oxy)-6-azaspiro[3.4]octan-6-yl)prop-2-en-1-one] | 8.00 to 9.00 | – | 5.00 to 6.00 |
| C=CC(=O)N1CC[C@]2(C1)C[C@@](C)(Oc1nc(-c3cnn(C)c3)cn3nccc13)C2 [Example 213, rac-1-((2r,4s)-2-methyl-2-((6-(1-methyl-1H-pyrazol-4-yl)pyrazolo[1,5-a]pyrazin-4-yl)oxy)-6-azaspiro[3.4]octan-6-yl)prop-2-en-1-one] | 8.00 to 9.00 | – | 5.00 to 6.00 |
| C=CC(=O)N(C)[C@@H]1C[C@@H](Oc2nc(-c3cnn(C)c3)cn3nccc23)C1(C)C [Example 220, N-((1R,3R)-2,2-dimethyl-3-((6-(1-methyl-1H-pyrazol-4-yl)pyrazolo[1,5-a]pyrazin-4-yl)oxy)cyclobutyl)-N-methylacrylamide] | 8.00 to 9.00 | 5.00 to 6.00 | – |
| C=CC(=O)NC12CCCC(Oc3nc(-c4cnn(C)c4)cn4nccc34)(C1)C2 [Example 224, N-(5-((6-(1-methyl-1H-pyrazol-4-yl)pyrazolo[1,5-a]pyrazin-4-yl)oxy)bicyclo[3.1.1]heptan-1-yl)acrylamide] | > 9.00 | 5.00 to 6.00 | – |
| C=CC(=O)N(CC(F)F)[C@H]1C[C@@](C)(Oc2nc(-c3cnn(C)c3)cn3nccc23)C1 [Example 226, N-(2,2-difluoroethyl)-N-((1s,3s)-3-methyl-3-((6-(1-methyl-1H-pyrazol-4-yl)pyrazolo[1,5-a]pyrazin-4-yl)oxy)cyclobutyl)acrylamide] | > 9.00 | > 6.00 | – |
| C=CC(=O)N[C@H]1C[C@@](C)(Oc2nc(-c3cnn(C)c3)cn3nccc23)C1 [Example 228, N-((1s,3s)-3-methyl-3-((6-(1-methyl-1H-pyrazol-4-yl)pyrazolo[1,5-a]pyrazin-4-yl)oxy)cyclobutyl)acrylamide] | > 9.00 | > 6.00 | – |
| C=CC(=O)N(C)[C@H]1C[C@@](C)(Oc2nc(-c3cnn(C)c3)cn3ncc(C4CC4)c23)C1 [Example 229, N-((1s,3s)-3-((3-cyclopropyl-6-(1-methyl-1H-pyrazol-4-yl)pyrazolo[1,5-a]pyrazin-4-yl)oxy)-3-methylcyclobutyl)-N-methylacrylamide] | > 9.00 | > 6.00 | – |
| Cn1cc(-c2cn3nccc3c(O[C@]3(C)C[C@H](NC(=O)/C=C/C(F)(F)F)C3)n2)cn1 [Example 231, (E)-4,4,4-trifluoro-N-((1s,3s)-3-methyl-3-((6-(1-methyl-1H-pyrazol-4-yl)pyrazolo[1,5-a]pyrazin-4-yl)oxy)cyclobutyl)but-2-enamide] | > 9.00 | > 6.00 | – |
| Cn1cc(-c2cn3nccc3c(O[C@]3(C)C[C@H](N(C)C(=O)/C=C/C(F)(F)F)C3)n2)cn1 [Example 232, (E)-4,4,4-trifluoro-N-methyl-N-((1s,3s)-3-methyl-3-((6-(1-methyl-1H-pyrazol-4-yl)pyrazolo[1,5-a]pyrazin-4-yl)oxy)cyclobutyl)but-2-enamide] | > 9.00 | > 6.00 | – |
